Test results as given in US8722850B2, “Self-assembling peptides and their use in the formation of hydrogels” (Universita' Degli Studi di Milano Bicocca, priority 2010, dated 2014).
“Also recorded” adds a separate entry of the source. Where a SMILES comes first, the peptide text is derived from it. The star is where a group is joined. Biotin = O=C1N[C@H]2[C@H](CS[C@H]2CCCCC(=O)*)N1

Legend:
[1] = tested on: human Neural Stem Cells (hNSCs); experiment: Live/Dead cell imaging (calcein AM / ethidium homodimer); assay type: cell-based; conditions: cells cultured for 10 days
Description: In vitro tests were performed following a previously adopted methodology (5). Briefly, cells (at a concentration of 6×10^4 cells/cm^2) were seeded on the top-surface of each assembled scaffold previously assembled into 96 multiwells. Initially, cells were cultured with basal medium supplemented with βFGF (10 ng/ml), added to enhance neuronal progeny differentiation. At 3 days in vitro (DIV), βFGF medium was replaced with Leukemia Inhibitory Factor (LIF, Chemicon) (20 ng/ml) and Brain Derived Neurotrophic Factor (BDNF, Peprotech) (20 ng/ml). Fresh medium was added every three days. Positive and negative controls consisted of CULTREX-BME® substrate (R&D systems) (1:100 dilution in basal medium) and untreated bottom well surfaces respectively.
Live/Dead cell imaging (MolecularProbes) was obtained by incubating cells cultured for 10 days with a staining solution containing 2.0 μM calcein AM and 4.0 μM ethidium homodimer in PBS at 37° C. for 60 min and visualized by inverted fluorescence microscope (Zeiss).

spinal cord of rats [2] = experiment: In vivo toxicity / biocompatibility, injections into the spinal cord, 3 days; conditions: three days after injection, versus saline
Description: (§1) To test if the SAPs according to the present invention show any toxicity when used in vivo we assessed the tissue reaction to multiple injections of B24 into the spinal cord of rats. All procedures involving animals were performed according to EC guidelines (EC Council Directive 86/609, 1987), to the Italian legislation on animal is experimentation (Decreto L. vo 116/92) and to protocols approved by the Animal Care and Use Committee of the University of Milan-Bicocca (IACUC 37/07).
Female Sprague-Dawley rats weighting 200-250 gr (Charles River Laboratories) were divided into two groups: 1) animals receiving injections of saline solution (control group, n=3) and 2) animals treated with B24 (n=3). In the case of long term observations (1 month) similar injections of B24 were used (n=2). Rats were anesthetized with an intraperitoneal injection of ketamine (80 mg/kg) and xylazine (10 mg/kg). The spinal cord was exposed at the T9-T10 level, and, after laminectomy, animals were injected with B24 (1% aqueous solution) or saline solution using a Hamilton syringe held via a micromanipulator. The solutions were delivered at distances of 500 μm, and two injections of 0.5 μl each were made at each interval, for a total dose of 3 μl. After injection, the muscles were sutured and the skin was closed with wound clips. Rats were treated daily with analgesic (carprofen, 5 mg/kg) and antibiotic (enrofloxacin, 5 mg/kg). 3 days after surgery (for toxicity tests) or 1 month after surgery (nervous regeneration tests) animals were sacrificed by transcardial perfusion with 4% paraformaldehyde. Spinal cords were removed, embedded in OCT, frozen and sliced into 16 μm thick longitudinal sections. For immunofluorescence analysis slices were permeabilized and blocked with PBS/0.3% TritonX-100/10% Normal Goat Serum (NGS) for 1 hour at room temperature. […]

spinal cord of rats [3] = experiment: In vivo nervous regeneration test, spinal cord injections, 1 month; conditions: one month after injections
Description: as §1
Female Sprague-Dawley rats weighting 200-250 gr (Charles River Laboratories) were divided into two groups: 1) animals receiving injections of saline solution (control group, n=3) and 2) animals treated with B24 (n=3). In the case of long term observations (1 month) similar injections of B24 were used (n=2). Rats were anesthetized with an intraperitoneal injection of ketamine (80 mg/kg) and xylazine (10 mg/kg). The spinal cord was exposed at the T9-T10 level, and, after laminectomy, animals were injected with B24 (1% aqueous solution) or saline solution using a Hamilton syringe held via a micromanipulator. The solutions were delivered at distances of 500 μm, and two injections of 0.5 μl each were made at each interval, for a total dose of 3 μl. After injection, the muscles were sutured and the skin was closed with wound clips. […]

[4] = Solubility and behaviour on dissolution in water; assay type: physicochemical
From the text: All of the synthesized peptides are soluble at 1% w/v concentration in distilled water and in acid (0.1 M HCl) solutions.

Molecule: C[C@@H](O)[C@H](NC(=O)[C@H](CCCNC(=N)N)NC(=O)[C@@H](NC(=O)[C@H](CO)NC(=O)[C@H](CO)NC(=O)[C@H](Cc1ccccc1)NC(=O)[C@@H]1CCCN1C(=O)CNC(=O)CNC(=O)CNC(=O)CCCC[C@@H]1SC[C@@H]2NC(=O)N[C@@H]21)[C@@H](C)O)C(N)=O [B22] (Biotin-GGGPFSSTRT-NH2)
- live/dead cell imaging [1]: clamped in poorly branched aggregates; also recorded: bipolar cells

Molecule: C[C@H](NC(=O)CNC(=O)CNC(=O)CNC(=O)CCCC[C@@H]1SC[C@@H]2NC(=O)N[C@@H]21)C(=O)N[C@@H](Cc1ccccc1)C(=O)N[C@@H](C)C(=O)N[C@@H](CO)C(=O)N[C@H](C(=O)N[C@@H](CCCCN)C(=O)N[C@H](C(N)=O)[C@@H](C)O)[C@@H](C)O [peptide B24] (Biotin-GGGAFASTKT-NH2)
- apoptotic cells (Tunel) (spinal cord of rats [2]): negligible number
- infiltrated macrophages (CD68) (spinal cord of rats [2]): negligible number
- neurofilament H dephosphorilated (degenerating) nervous fibers (spinal cord of rats [2]): equally present in saline-injected and in B24-treated animals
- chronic inflammation in the spinal cord (spinal cord of rats [3]): did not exert any chronic inflammation
- live/dead cell imaging [1]: distributed throughout the gel top surface; also recorded: a layer of widely branched cells

Molecule: Biot-GGGPFSSTQT-CONH2 (Biotin-GGGPFSSTQT-NH2; SMILES C[C@@H](O)[C@H](NC(=O)[C@H](CCC(N)=O)NC(=O)[C@@H](NC(=O)[C@H](CO)NC(=O)[C@H](CO)NC(=O)[C@H](Cc1ccccc1)NC(=O)[C@@H]1CCCN1C(=O)CNC(=O)CNC(=O)CNC(=O)CCCC[C@@H]1SC[C@@H]2NC(=O)N[C@@H]21)[C@@H](C)O)C(N)=O) [B13]
- self-assembling on dissolution [4]: immediately self-assembling with dissolution in water
